Legend:
ErbB4 [1] = assay: Tyrosine kinase activity assay of anti-ErbB4 immunoprecipitates, A431 cells; assay type: cell-based; details: GWRQ peptide 5 μg/ml, EGF 20 ng/ml
Description: (§1) A431 cells and HT-H cells were cultured in 10 cm plate to sub-confluency.
(§2) Medium was replaced with DME without FCS, and cells were cultured for 3 days without FCS by exchanging medium every day. To HT-H or A431 monolayer kept at 4° C., Na3VO4 was added to 1 mM. GWRQ peptide (5 μg/ml) and/or recombinant human EGF (20 ng/ml) was added to each plate, and left at 4° C. for 30 min. Cells were harvested by rubber policeman, and washed with cold PBS. Cells were lysed in PBS containing 1% NP-40, and cell lysate was subjected to immunoprecipitation with 20 & I protein A beads pre-coated with control IgG or with rabbit anti-ErbB4 antibody (Sant Cruz Biotechnology). Immunoprecipitates were washed with cold PBS and suspended in cold PBS. A polyvinylchloride ELISA plate (Falcon) was coated with tyrosine kinase substrate poly EY (Sigma) in PBS (1 μg/100 μl) at 4° C. for 20 hours. After washing the plate, each immunoprecipitate as triplicate was added to each well in 100 & I kinase assay buffer (50 mM Hepes buffer, pH 7.4, 20 mM MgCl2, 1 mM MnCl2 2 mM Na3VO4, and 0.4 mM ATP), and reacted at room temperature for 30 min. […] After washing wells with TBS, peroxidase substrate ABTS (Pierce) was added and developed color was read in an ELISA reader at 405 mm.

HT-H cells [2] = assay: Western blot for tyrosine phosphorylated proteins, HT-H cells; assay type: cell-based, human; details: serum-depleted medium, 30 min
Description: (§3) Tyrosine phosphorylated proteins were detected by anti-phosphotyrosine antibody (4G10, mouse IgG). HT-H cells and A431 cells were grown in 10 cm plates to semi confluency, incubated in phosphorylation medium with GWRQ peptide (GWRQ-MAP; 2 μg/ml) at 4° C. for 15 min, and stimulated for phosphorylation at 37° C. for 0 min 120 min. Control HT-H cells were treated in the same manner without GWRQ peptide. HT-H cells were harvested using rubber policemen, collected by centrifugation, and washed once with cold PBS. Cells were lysed with 0.5% NP-40 in PBS containing phosphatase inhibitors (30 mM NaF, 40 mM β-glycerophosphate, 20 mM Na pyrophosphate, and 1 mM Na2VO4) and protease inhibitors (2 mM EGTA, 5 mM EDTA, 1 mM phenylmethylsulfonylfluoride, 3 mM benzamidine, 5 μM pepstatin A, 10 μM leupeptin). Western blot was carried out as described above.
(§4) Screening of phosphorylated proteins by phospho specific antibodies was carried out by Kinexus, Vancouver, B. C., Canada. HT-H cells and A431 cells grown as monolayers were serum starved by culturing in medium lacking FCS for 2 days. Cells were incubated in phosphorylation medium without FCS and then stimulated at 37° C. for 0 min˜120 min in medium containing recombinant human EGF (20 ng/ml) with or without GWRQ peptide.

ErbB4 [3] = assay: Tyrosine kinase activity assay of anti-ErbB4 immunoprecipitates, HT-H cells; assay type: cell-based, human; details: GWRQ peptide 5 μg/ml, EGF 20 ng/ml
Description: as §1, §2

A431 cells = assay: Western blot for tyrosine phosphorylated proteins, A431 cells; assay type: cell-based; details: serum-depleted medium, 30 min
Description: as §3, §4

HT-H cells [4] = assay: Activation of HT-H cells, monomeric versus branched peptide; assay type: cell-based, human

Substance	ErbB4 kinase activity in A431 cells (ErbB4 [1])	EGFR / tyrosine phosphorylation in HT-H cells (HT-H cells [2])	ErbB4 kinase activity in HT-H cells (ErbB4 [3])	EGFR / tyrosine phosphorylation in A431 cells (A431 cells)	concentration needed to activate HT-H cells (HT-H cells [4]) [µg/mL]	efficiency relative to octameric branched GWRQ peptide (GWRQ-MAP) (HT-H cells [4]; less efficiency)
EGF: recombinant human EGF (NSDSECPLSHDGYCLHDGVCMYIEALDKYACNCVVGYIGERCQYRDLKWWELR)	activated	no detectable EGFR phosphorylation	activated	caused EGFR phosphorylation		
monomeric GWRQ peptide: a single linear GWRQ peptide					200 to 500	about 100 times

Reference: patent US8097588B2, “Trophinin-binding peptides and uses thereof” (Sanford-Burnham Medical Research Institute, priority 2007, dated 2012)
